Assay results taken from the METLIN SMRT retention time set (Domingo-Almenara et al. 2019).

Assay: gradient 5% acetonitrile 3 min, to 50% in 2 min, to 85% in 15 min, held 3 min, 100 µL/min
Conditions: column: Zorbax Extend-C18 2.1 x 50 mm; eluents: water / acetonitrile, 0.1% formic acid
Method in brief: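 The system's dead and dwell volumes were 40 μL and 900 μL, with a Zorbax Extend-C18 column (2.1 × 50 mm, 1.8 μm) run at 100 μL/min in water and acetonitrile containing 0.1% formic acid each. Pure standards were analyzed in mixtures of ~100 molecules by HPLC–quadrupole time-of-flight mass spectrometry in positive and negative ionization mode. Retention time was assigned from computationally picked, manually inspected adduct peaks.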

Row | SMILES | RP-LC retention time
1 | O=c1c2scc(-c3cccc(F)c3)c2ncn1Cc1cc(=O)n2ccccc2n1 | 809 s
2 | CCCCOc1ccc(C(=O)Nc2ccc(-c3nc(C)no3)cc2)cc1 | 1070 s
3 | CN(C)C(=O)c1n[nH]c2c1CN(C(=O)c1cc(F)ccc1F)CC2 | 617 s
4 | O=C(CCn1nnc2cc(-c3noc(C4CCCCC4)n3)ccc21)N1CCOCC1 | 891 s
5 | Cc1ccc(Cl)cc1NS(=O)(=O)c1cc(-c2cc(C(F)(F)F)on2)sc1C | 1240 s
6 | CCS(=O)(=O)NCC(c1cccnc1)N1CCN(c2ccccc2F)CC1 (centres undefined) | 561 s
7 | CSc1ccc(NC(=O)c2c(C)oc3ccn(Cc4ccc(F)cc4)c(=O)c23)cc1 | 1270 s
8 | CS(=O)(=O)Nc1ccc(C2(C(=O)NCc3ccccc3F)CCCCC2)cc1 | 904 s
9 | CN1Cc2ccccc2-n2ccnc2C12CCN(C(=O)c1cc(F)cc(F)c1)CC2 | 618 s
10 | Cc1cccc2nnc(N3CCN(C(=O)c4ccc(C(F)(F)F)s4)CC3)n12 | 751 s
11 | CCOc1ccc(NC(=O)N2CCC(C(=O)NCc3csc(C)n3)CC2)cc1 | 652 s
12 | Cc1ccc(CNC(=O)c2cnn3c(-c4ccc(Cl)cc4)ccnc23)o1 | 1050 s
13 | Cc1cc(C)n(-c2nccnc2SCC(=O)Nc2cccc(Cl)c2C)n1 | 871 s
14 | CC(=O)c1ccc(NC(=O)CSc2ncc(-c3ccc(C)c(C)c3)o2)cc1 | 970 s
15 | Cc1ccc(S(=O)(=O)N(C)C)cc1-c1nnc(-c2ccc(F)cc2)o1 | 976 s
16 | Cc1ccc(-c2cc3n(n2)CCCN(C(=O)c2ccncc2)C3)cc1 | 689 s
17 | O=C(c1ccsc1)N1CCCCC1c1nncn1Cc1ccccc1 (centres undefined) | 726 s
18 | CCc1c(C(=O)O)nnn1-c1ccc(C)c(C)c1 | 783 s
19 | CCc1ccc(C2=C(C)C(N3CCCN(C(=O)C(C)C)CC3)=NS2(=O)=O)cc1 | 824 s
20 | CCN1C(=O)c2cccnc2Sc2cc(NC(=O)c3cccc(F)c3)ccc21 | 844 s

Row | SMILES | RP-LC retention time
21 | COC(=O)C1=CN(c2ccc(OC)cc2)c2ccccc2S1(=O)=O | 819 s
22 | CCCn1cc(SCC(=O)Nc2cc(C)on2)c2ccccc21 | 883 s
23 | CCCC(=O)NCc1c(-c2ccccc2)nc2n1CCS2 | 604 s
24 | N#Cc1cccc(Cn2nc(-c3nc(-c4ccc(Cl)cc4)no3)ccc2=O)c1 | 1100 s
25 | CCOCCOC(=O)C1=C(C)NC2=C(C(=O)CC(C)(C)C2)C1c1ccccc1OC (centres undefined) | 839 s
26 | O=C([C@@H]1C[C@H](F)CN1S(=O)(=O)c1ccc(C(F)(F)F)cc1)N1CCCCC1 | 885 s
27 | O=C(Cc1cccc(F)c1)N1CCN(c2cc(-c3cccs3)[nH]n2)CC1 | 798 s
28 | CCC(=O)NCc1ccc(-c2nc(C(C)C)cs2)cc1 | 873 s
29 | CN1C(=O)c2cc(C(=O)NCc3ccc(Cl)cc3)nn2CC1(C)C(=O)NCc1ccccc1 (centres undefined) | 832 s
30 | COc1ccc(-n2ncc3c(=O)n(Cc4nc(-c5ccccc5OC)no4)cnc32)cc1 | 902 s
31 | COc1cccc(CNC2CCN(c3ccc(C(=O)NC4CC4)cn3)C2)c1OC (centres undefined) | 562 s
32 | COc1cc2c(cc1CNC(=O)Cn1cc(C(C)=O)c3ccccc31)OCCCO2 | 771 s
33 | CN(C)C(=O)c1cc2c(s1)CCC(C(=O)NCCc1cccnc1)C2 (centres undefined) | 543 s
34 | COc1ccc(OC)c(NC(=O)C2Cn3cccc3C(=O)N2C)c1 (centres undefined) | 699 s
35 | CSc1cccc(NC(=O)NCCc2cn(C)c3ncccc23)c1 | 716 s
36 | CCC1Oc2ccc(S(=O)(=O)N3CCC(C(=O)Nc4cc(C)cc(C)c4)CC3)cc2NC1=O (centres undefined) | 837 s
37 | Cc1nnc([C@@H]2CC(F)(F)CN2C(=O)c2ccc3ccccc3n2)o1 | 756 s
38 | O=C(NCc1ccco1)c1csc(N2CCN(c3cccc(Cl)c3)CC2)n1 | 1080 s
39 | O=S(=O)(c1ccc(F)c(F)c1)N1CCCC(Cn2c(C3CC3)nc3cccnc32)C1 (centres undefined) | 782 s
40 | Cc1noc(CNC(=O)C2CCN(C(=O)c3ccc(S(=O)(=O)N(C)C)cc3)CC2)n1 | 618 s

Other lines, results leading:

Row | RP-LC retention time | SMILES
41 | 708 s | O=C(/C=C/c1ccccc1)Nc1cccc(-c2nnc3n2CCCC3)c1
42 | 616 s | N#Cc1ccc(S(=O)(=O)NC2CCc3nn(CC4CC4)c(=O)n3CC2)cc1 (centres undefined)
43 | 946 s | Cc1cc(=O)n(Cc2cccc(F)c2)c(N2CCSCC2)n1
44 | 834 s | Cc1sc2ccn(C)c(=O)c2c1C(=O)NCc1ccccc1Br
45 | 862 s | Nc1nc(-c2ccccc2)nn1C(=O)c1ccccc1F
46 | 669 s | CCc1ccc(S(=O)(=O)Nc2cc(C(=O)O)ccc2N2CCN(c3ccccn3)CC2)cc1
47 | 817 s | COCCOCc1nc(C2CCN(S(=O)(=O)c3cc(F)ccc3F)C2)no1 (centres undefined)
48 | 569 s | CCN1CCCC1CN(CCC(=O)N1CCNCC1)C(=O)c1ccc(C(F)(F)F)cc1 (centres undefined)
49 | 700 s | O=C(NCc1cccnc1-c1ccc(F)cc1)c1cc(F)ccc1Cl
50 | 717 s | CCOC(=O)c1ccc(Nc2c(-c3cccc(O)c3)nc3cnccn23)cc1
51 | 1050 s | COc1ccc(C)cc1NC(=O)c1cc(C)n2nccc2n1
52 | 791 s | O=C(COc1ccccc1F)Nc1ccc(Cl)c(N2CCCS2(=O)=O)c1
53 | 776 s | C=CCNC(=O)c1cn(-c2ncccc2-c2nc(C(C)(C)C)no2)cn1
54 | 898 s | CN(CCc1noc(COc2ccc(Cl)cc2Cl)n1)C(=O)c1ccco1
55 | 938 s | O=C(NC1CCCCC1)c1nc(-c2cn(-c3ccc(F)cc3)nn2)no1
56 | 647 s | O=C(Cn1c(=O)c2cccn2c2ccc(F)cc21)NCCCN1CCCC1=O
57 | 698 s | O=C(NC1CCCCCC1)c1cc(NS(=O)(=O)c2ccc(Cl)cc2)cnc1N1CCNCC1
58 | 564 s | c1cncc(-c2nc(CC3CCCNC3)no2)c1 (centres undefined)
59 | 848 s | COc1ccc(CNS(=O)(=O)c2cc(-c3cc(C(F)(F)F)on3)sc2C)cc1
60 | 570 s | Cc1cc2n(n1)CCC(=O)N2CCCC(=O)NCCCN1CCCCCC1
61 | 737 s | CC1CCN(C(=O)C2N(C(C)C)C(=O)C23CCCC3)CC1 (centres undefined)
62 | 649 s | Fc1ccccc1-c1noc(N2CCN(c3ccccn3)CC2)n1
63 | 880 s | Cc1cc2c(F)c(Oc3ncnn4cc(OC[C@@H](C)O)c(C)c34)ccc2[nH]1
64 | 982 s | O=C(Nc1ccc(Cl)cc1F)c1cnc(-c2ccccc2)nc1-c1ccncc1
65 | 766 s | COc1ccc(S(=O)(=O)NC2CCN(C(=O)Cc3c[nH]c4ccccc34)CC2)cc1

Row | RP-LC retention time | SMILES
66 | 753 s | COc1cc(NC(=O)C2CC(=O)N(CCc3c[nH]c4ccc(C)cc34)C2)cc(OC)c1OC (centres undefined)
67 | 873 s | O=C(C1=NN(Cc2ccc(F)cc2)c2ccc(Cl)cc2S1(=O)=O)N1CCOCC1
68 | 1200 s | CCn1nccc1-c1cccc(-c2noc(COc3ccc(Cl)cc3)n2)c1
69 | 862 s | Cc1ccc(-c2noc(-c3ccccc3S(=O)(=O)N3CCN(c4ccccn4)CC3)n2)cc1
70 | 634 s | O=C(NCc1ccc(N2CCCCC2)cc1)c1cccc2c1CCN2C(=O)C1CC1
71 | 569 s | COc1ccccc1N1CCN(CCNC(=O)Nc2ccc3c(c2)OCO3)CC1
72 | 651 s | Cc1nnc(C2CCCN(C(=O)c3ccc4nsnc4c3)C2)s1 (centres undefined)
73 | 653 s | Cc1cc(C)c2c(N3CCSCC3)nc(C(=O)NCC3CC3)nc2n1
74 | 1010 s | O=C(NCc1ccc(F)cc1Cl)c1cc(C2CC2)n2nccc2n1
75 | 609 s | CSc1ccccc1NC(=O)c1ccc(-n2cccn2)nn1
76 | 741 s | COCCCNc1c(-c2cccc(F)c2)nc2sc(C(N)=O)c(C)n12
77 | 986 s | CC(C)c1cc(C(=O)NCc2ccc3c(c2)OCO3)nc2cc(-c3ccccn3)nn12
78 | 570 s | Cc1ccc(CN2CC[C@]3(CO)CN(Cc4ccccc4)C[C@@H]3C2)cc1C
79 | 967 s | O=C(Nc1ccc2c(c1)OCO2)c1noc2c1CCCCC2
80 | 1300 s | CCc1ccc(-n2ncc3c(=O)n(Cc4nc(-c5ccc(C)c(C)c5)no4)cnc32)cc1
81 | 649 s | CN1C(=O)[C@H]2CN(Cc3cccc(Cl)c3F)C[C@H]2C1=O
82 | 621 s | O=C(NC1CCN(Cc2ccccc2)CC1)c1cn2nc(Cl)ccc2n1
83 | 665 s | CCN1CCN(C(=O)c2nnc(-c3ccc(S(=O)(=O)N4CCCCC4)cc3)o2)CC1
84 | 967 s | CCOc1cc(C(=O)Nc2ccc(Cl)c(-c3nc4ccccc4[nH]3)c2)cc(OCC)c1OCC
85 | 594 s | O=S(=O)(Nc1ccc(-c2ccc(N3CCCC3)nn2)cc1)c1ccc(Cl)s1
86 | 609 s | COc1ccc(C(CC(=O)N2CCN(C)CC2)N2Cc3ccccc3C2=O)cc1OC (centres undefined)
87 | 1130 s | Cc1sc(C)c(S(=O)(=O)Nc2ccccc2F)c1-c1cc(C(F)(F)F)on1
88 | 894 s | COc1cccc(-c2noc(Cc3nnc(-c4ccccc4)o3)n2)c1OC
89 | 652 s | O=C1CCN(C(=O)C2CCN(C(=O)C3CCCC3)CC2)CCCCCCN1
